The IC50 is the point on the concentration scale where inhibition reaches its midpoint. Lower therefore signals higher potency.

The first assay has as its system Plasmodium falciparum 3D7. The experiment in a line: P. falciparum 3D7 asexual blood stage assay, Assay Procedure Version 2 (SYBR green readout). In kind it is cell-based. The following applies: Plasmodium falciparum, 3D7, Erythrocyte, 72 h, Version 2 of the assay procedure (asterisk *); 72 h incubation in infected erythrocytes; 50,000 nM to 15 nM. As for the experimental part: Asexual Blood Stage Assay
The assay used to measure the effect of test compounds on a bloodstream stage of Plasmodium falciparum 3D7 strain employs SYBR green as the readout. This is a dye that binds to double stranded deoxyribonucleic acid (DNA) with a resulting increase in fluorescence, allowing detection of P. falciparum DNA in infected erythrocytes, and thereby providing a measure of parasite growth and propagation.
P. falciparum Culture Maintenance
Erythrocytes (A+blood) were prepared for both parasite culture and assay by washing 4 times with incomplete media (15.9 g RPMI 1640 (25 mM HEPES, L-glutamine), 1 g NaHCO3, 2 g glucose, 400 μL gentacin (500 mg/mL), 2 mL hypoxanthine solution (13.6 g/L in 0.1M NaOH pH 7.3) in 1 litre of media). The cells were centrifuged at 1800 g for 5 minutes, before decanting the supernatant and re-suspending in fresh incomplete media. On the final wash, the cells were re-suspended in complete media (incomplete media with 5 g/L AlbumaxII), and centrifuged at 1800 g for 3 minutes. This cell sediment was treated as 100% haematocrit.
P. falciparum 3D7 was cultured in erythrocytes at 5% haematocrit in complete media at 37° C. (1% O2, 3% CO2, balance N2). Cultures were split on a weekly basis to achieve a 1% parasitaemia in erythrocites at 5% haematocrit in fresh media. Culture media is replaced by fresh media every other day (2 times during the week).
[formula] where A=% inhibition at bottom; B=% inhibition at top; C=EC50; D=slope; x=inhibitor concentration; and y=% inhibition. […] Assay Procedure—Version 2
On day 1, test compounds were added to assay plates using Echo dispensing technology ([…] and 20 points titration). 50 nL of each compound dilution was added to 50 μL of culture (5% haematocrit, 0.5% parasitaemia) and incubated for 72 h at 37° C. (1% O2, 3% CO2, balance N2). Final concentrations of test compounds ranged from 50,000 nM to 15 nM, in […].
On day 4, 10 μL SYBR green (Invitrogen S7563 supplied as 10,000× concentrate in DMSO) pre-diluted to 3× concentrate with Lysis buffer (20 mM Tris pH 7.9, 5% EDTA, 0.16% w/v, 1.6% TX100 v/v) was added to the cultures and incubated in the dark, overnight, at room temperature.
On day 5, fluorescent signal was measured using a BioTek plate reader (excitation 485 nm, emission 528 nm). All data were processed using IDBS ActivityBase. Raw data were converted into percent inhibition through linear regression by setting the high inhibition control (mefloquine) as 100% and the no inhibition control (DMSO) as 0%. Quality control criteria for passing plates were as follows: Z′>0.5, S:B>3, % CV(no inhibition control)<15. The formula used to calculate Z′ is:
[formula] where μ denotes the mean; σ denotes the standard deviation; p denotes the positive control; and n denotes the negative control.
All EC50 curve fitting was undertaken using the following bi-phasic two site dose response using XLfit model 300 (IDBS):
[formula] where A=100 minus the top of the upper curve 1 and the bottom of lower curve; B=Hill slope; log(C)=IC50 concentration at lower site; log(D)=IC50 concentration at upper site; x=inhibitor concentration; and y=% inhibition.
As to `Cc1ccc(Nc2cccc([C@]3(C)CC(=O)N([C@H]4CCO[C@H](C)C4)C(=N)N3)c2Cl)cn1` (single isomer, unassigned; peak 1) [Example 195, (6S)-6-(2-Chloro-3-[(6-methyl-pyridin-3-yl)amino]phenyl}-2-imino-6-methyl-3-[(2R*,4S*)-2-methyltetrahydropyran-4-yl]-hexahydropyrimidin-4-one (Peak 1)], inhibition was half-maximal at 244 nM (IC50).
Still for that read-out and setting: as for `CC(C)Oc1ccccc1Nc1cccc([C@]2(C)CC(=O)N(C3CCOCC3)C(=N)N2)c1Cl` [Example 76, (6S)-6-[2-Chloro-3-(2-isopropoxyanilino)phenyl]-2-imino-6-methyl-3-(tetrahydro-pyran-4-yl)hexahydropyrimidin-4-one], the figure is 757 nM.
`Cn1nnc(-c2ccc(Nc3cccc([C@]4(C)CC(=O)N(C5CCOCC5)C(=N)N4)c3Cl)cn2)n1` [Example 117, (6S)-6-(2-Chloro-3-{[6-(2-methyltetrazol-5-yl)pyridin-3-yl]amino}phenyl)-2-imino-6-methyl-3-(tetrahydropyran-4-yl)hexahydropyrimidin-4-one] yielded an IC50 of 707 nM.
Same read-out and setting: the result for `Cc1ccc(Nc2cccc([C@]3(C)CC(=O)N(C4CCOCC4)C(=N)N3)c2Cl)nn1` [Example 84, (6S)-6-{2-Chloro-3-[(6-methyl-pyridazin-3-yl)amino]phenyl}-2-imino-6-methyl-3-(tetrahydro-pyran-4-yl)hexahydropyrimidin-4-one] reads 1540 nM.
Same read-out and setting: the result for `C[C@@]1(c2cccc(Nc3ccc(-c4ccccc4)cc3)c2Cl)CC(=O)N(C2CCOCC2)C(=N)N1` [Example 71, (6S)-6-[2-Chloro-3-(4-phenyl-anilino)phenyl]-2-imino-6-methyl-3-(tetrahydropyran-4-yl)hexahydropyrimidin-4-one] reads 3530 nM.
Regarding `C[C@@]1(c2cccc(Nc3ccc(C4CC4)nc3)c2Cl)CC(=O)N(C2CCC(F)(F)CC2)C(=N)N1` [Example 142, (6S)-6-{2-Chloro-3-[(6-cyclo-propylpyridin-3-yl)amino]-phenyl}-3-(4,4-difluoro-cyclohexyl)-2-imino-6-methyl-hexahydropyrimidin-4-one], inhibition was half-maximal at 232 nM (IC50).
Same read-out and setting: the result for `C[C@@]1(c2cccc(Nc3cnccc3C#N)c2Cl)CC(=O)N(C2CCOCC2)C(=N)N1` [Example 48, 3-{2-Chloro-3-[(4S)-2-imino-4-methyl-6-oxo-1-(tetrahydro-pyran-4-yl)hexahydropyrimidin-4-yl]anilino}pyridine-4-carbo-nitrile] reads 386 nM; that for `CC[C@]1(O)C[C@@H](N2C(=N)N[C@](C)(c3cccc(Nc4ccc(F)cc4)c3Cl)CC2=O)C1` [Example 178, (6S)-6-[2-Chloro-3-(4-fluoro-anilino)phenyl]-3-(3-ethyl-3-hydroxycyclobutyl)-2-imino-6-methylhexahydropyrimidin-4-one (cis isomer)], 428 nM.
The same measure, in the same setting: the result for `COc1nc(C)ccc1Nc1cccc([C@]2(C)CC(=O)N(C3CCOCC3)C(=N)N2)c1Cl` [Example 55, (6S)-6-{2-Chloro-3-[(2-methoxy-6-methylpyridin-3-yl)-amino]phenyl}-2-imino-6-methyl-3-(tetrahydropyran-4-yl)hexahydropyrimidin-4-one] reads 433 nM; that for `Cc1ccc(Nc2cccc([C@]3(C)CC(=O)N([C@H]4C[C@@](O)(C(F)(F)F)C4)C(=N)N3)c2Cl)cn1` [Example 153, (6S)-6-{2-Chloro-3-[(6-methyl-pyridin-3-yl)amino]phenyl}-3-[3-hydroxy-3-(trifluoromethyl)-cyclobutyl]-2-imino-6-methyl-hexahydropyrimidin-4-one (trans isomer)], 3220 nM; that for `Cc1ccc(Nc2cccc([C@]3(C)CC(=O)N(C4CCC(F)(F)CC4)C(=N)N3)c2Cl)cn1` [Example 139, (6S)-6-{2-Chloro-3-[(6-methyl-pyridin-3-yl)amino]phenyl}-3-(4,4-difluorocyclohexyl)-2-imino-6-methylhexahydro-pyrimidin-4-one], 132 nM.
On the same count and under the same terms, as for `CC(=O)N1CCc2cc(Nc3cccc([C@]4(C)CC(=O)N(C5CCOCC5)C(=N)N4)c3Cl)ccc21` [Example 65, (6S)-6-{3-[(1-Acetylindolin-5-yl)amino]-2-chlorophenyl}-2-imino-6-methyl-3-(tetrahydro-pyran-4-yl)hexahydropyrimidin-4-one], the figure is 458 nM.
Compound `COc1ccncc1Nc1cccc([C@]2(C)CC(=O)N(C3CCOCC3)C(=N)N2)c1Cl` [Example 54, (6S)-6-{2-Chloro-3-[(4-methoxypyridin-3-yl)amino]-phenyl}-2-imino-6-methyl-3-(tetrahydropyran-4-yl)-hexahydropyrimidin-4-one] registered an IC50 of 655 nM.
On to `CC1(C)CC(N2C(=N)N[C@](C)(c3cccc(Nc4cnc(C5CC5)cn4)c3Cl)CC2=O)CCO1` (single isomer, unassigned) [Example 151, (6S)-6-{2-Chloro-3-[(5-cyclo-propylpyrazin-2-yl)amino]-phenyl}-3-[(4S*)-2,2-dimethyl-tetrahydropyran-4-yl]-2-imino-6-methylhexahydropyrimidin-4-one], for which inhibition was half-maximal at 707 nM (IC50).
On the same count and under the same terms, the result for `C[C@@]1(c2cccc(Nc3cc(F)c4ccnn4c3)c2Cl)CC(=O)N(C2CCOCC2)C(=N)N1` [Example 70, (6S)-6-{2-Chloro-3-[(4-fluoro-pyrazolo[1,5-a]pyridin-6-yl)-amino]phenyl}-2-imino-6-methyl-3-(tetrahydropyran-4-yl)hexahydropyrimidin-4-one] reads 478 nM.
`CC(C)(C)c1ncc(Nc2cccc([C@]3(C)CC(=O)N(C4CCC(F)(F)CC4)C(=N)N3)c2Cl)cn1` [Example 141, (6S)-6-{3-[(2-tert-Butyl-pyrimidin-5-yl)amino]-2-chloro-phenyl]-3-(4,4-difluoro-cyclohexyl)-2-imino-6-methyl-hexahydropyrimidin-4-one]: 180 nM corresponded to half-maximal inhibition (IC50).
The compound `C[C@@]1(c2cccc(Nc3cccnc3C#N)c2Cl)CC(=O)N(C2CCOCC2)C(=N)N1` [Example 51, 3-{2-Chloro-3-[(4S)-2-imino-4-methyl-6-oxo-1-(tetrahydro-pyran-4-yl)hexahydropyrimidin-4-yl]anilino}pyridine-2-carbo-nitrile] returned an IC50 of 370 nM.
On the same count and under the same terms, as for `C[C@@H]1C[C@@H](N2C(=N)N[C@](C)(c3cccc(Nc4ccc(C5CC5)nc4)c3Cl)CC2=O)CCO1` (single isomer, unassigned; peak 1) [Example 193, (6S)-6-{2-Chloro-3-[(6-cyclo-propylpyridin-3-yl)amino]-phenyl}-2-imino-6-methyl-3-[(2R*,4S*)-2-methyltetrahydro-pyran-4-yl]hexahydropyrimidin-4-one (Peak 1)], the figure is 148 nM; as for `Cc1ccc(Nc2cccc([C@]3(C)CC(=O)N([C@H]4C[C@](O)(C(F)(F)F)C4)C(=N)N3)c2Cl)cn1` [Example 152, (6S)-6-{2-Chloro-3-[(6-methyl-pyridin-3-yl)amino]phenyl}-3-[3-hydroxy-3-(trifluoromethyl)-cyclobutyl]-2-imino-6-methyl-hexahydropyrimidin-4-one (cis isomer)], 613 nM.
In the case of `Cc1nnc(-c2ccc(Nc3cccc([C@]4(C)CC(=O)N(C5CCOCC5)C(=N)N4)c3Cl)cc2)o1` [Example 80, (6S)-6-{2-Chloro-3-[4-(5-methyl-1,3,4-oxadiazol-2-yl)-anilino]phenyl}-2-imino-6-methyl-3-(tetrahydropyran-4-yl)hexahydropyrimidin-4-one], it took 652 nM to reach half-maximal inhibition (IC50).

Still in this assay, the particulars now being: Version 2 of the assay procedure (asterisk *); 72 h incubation in infected erythrocytes; 50,000 nM to 15 nM.
Compound `CC1(C#N)CC(N2C(=N)N[C@](C)(c3cccc(Nc4ccc(F)cc4)c3Cl)CC2=O)C1` [Example 180, 3-{(4S)-4-[2-Chloro-3-(4-fluoroanilino)phenyl]-2-imino-4-methyl-6-oxohexahydro-pyrimidin-1-yl}-1-methyl-cyclobutanecarbonitrile (trans isomer)] showed an IC50 of 629 nM.

These data come from patent publication US11479546B2, “Antimalarial hexahydropyrimidine analogues” (UCB Biopharma SRL, priority 2018, dated 2022).
